Source: patent US20150045301A1, “METHODS AND USES OF ANP (ATRIAL NATRIURETIC PEPTIDE), BNP (BRAIN NATRIURETIC PEPTIDE) AND CNP (C-TYPE NATRIURETIC PEPTIDE)-RELATED PEPTIDES AND DERIVATIVES THEREOF FOR TREATMENT OF RETINAL DISORDERS AND DISEASES” (KALOS Therapeutics, Inc., priority 2011, published 2015)
Where “and” joins values, the source holds several entries; their conditions need not be identical. Equal entries are not always repeated. Entries after “also recorded” stand apart in the source; their conditions may differ.

Key:
[1] = system: Human Pancreatic Adenocarcinoma Cells (HPAC); assay: HPAC cell viability / anti-cell proliferative assay (Calbiochem Rapid Cell Proliferation Kit, OD 450 nm); format: cell-based; details: 48 hours; for Optical Densities in 96_Well Plate, Average: average of 5 wells; for Optical Densities in 96_Well Plate, single well: one of 5 replicate wells
Experimental: Human Pancreatic Adenocarcinoma Cells (HPAC) cells were obtained from ATCC and propagated in Dulbecco's modified Eagle's medium and Ham's F12 medium (DME-F12) (1:1) containing 2.5 mM glutamine, […], 5 ug/mL transferrin, 1 ng/mL EGF (epidermal growth factor), plus 5% FBS (fetal bovine serum). Cell cultures were incubated at 37° C., 5% CO2 in a 100% humidity atmosphere. The cells were routinely brought to confluence in T-flasks, rinsed with phosphate buffered saline(PBS), and treated with trypsin for 5 min at room temp. The trypsinized cells were rinsed from the plate with 10 mL medium and counted. Viability at subculturing was generally ≧95%.
Approximately 10,000 cells in 100 uL of medium were placed in each well of a 96-well plate and incubated over night. Peptides having the following sequences were used: Arg-15-Cys (RSSCAGAALSPLGAC); Pro-15-Val (PNEEAGAALSPLPEV); Ala-8-Leu (AGALSPL); C-ANP 4-23 ([…]) and, VDL ([…]). The peptides were dissolved in PBS and sterile filtered. The peptides were diluted into the cell culture medium to the following final concentrations: 1, 0.3, 0.1, 0.03, and 0.01 uM. Each peptide was tested in 5 replicate wells. The cultures were incubated for an additional 48 hours at 37° C.
The viability of the cells was determined using a Calbiochem Rapid Cell Proliferation Kit (catalog number QIA127). Ten uL of Calbiochem color reagent was added to each well and incubated for an additional 1.5 hours at 37° C. Optical densities were read at 450 nm using a Molecular Devices ThermoMax microplate reader. The plate template is shown in Table I (unlabeled wells contained cells but no peptide and were used as blanks). Results are presented in Table I, and are graphically illustrated in FIGS. 1 and 2.

cancer cells [2] = assay: Anti-cancer activity of peptides with the conserved motif (cell proliferative assay); format: cell-based; details: statement in the description
Description: This example describes activity of peptides having a conserved motif and conserved amino acids predicted to be functional in the motif. (Table III). This example also describes additional exemplary peptide sequences having a conserved motif predicted to have activity (Table IV). Notations “Res 1, Res 2” etc., herein refer by single letter abbreviation the amino acid in the exemplary peptide 8-mer. “Activity” can be determined by a cell proliferative assay, such as an assay described herein or known to one of skill in the art. Of course, peptides exemplified in Table IV can include the conserved motif peptide as part of a larger protein. The SEQ ID NO is the same as the peptide number. Each of these exemplary peptides can be analyzed in vitro, ex vivo, and in vivo for anti-cell proliferative activity using an assay, such as a cell based in vitro assay described in Examples 1 or 4.

[3] = system: Human RPE cells (ARPE-19); assay: Transepithelial electrical resistance (TEER) of RPE cell layer treated with VEGF; format: cell-based; details: ARPE-19 cell layer, concurrent treatment with VEGF 10 ng/ml, ANP luM
cancer cells [4] = details: comparison between natriuretic peptides, Vesely 2008; cited from earlier work
NPRC = target: T1, NPRC (Homo sapiens, UniProt P17342); details: comparison between natriuretic peptides, Vesely 2008; cited from earlier work
T1 sequence (P17342 27-541): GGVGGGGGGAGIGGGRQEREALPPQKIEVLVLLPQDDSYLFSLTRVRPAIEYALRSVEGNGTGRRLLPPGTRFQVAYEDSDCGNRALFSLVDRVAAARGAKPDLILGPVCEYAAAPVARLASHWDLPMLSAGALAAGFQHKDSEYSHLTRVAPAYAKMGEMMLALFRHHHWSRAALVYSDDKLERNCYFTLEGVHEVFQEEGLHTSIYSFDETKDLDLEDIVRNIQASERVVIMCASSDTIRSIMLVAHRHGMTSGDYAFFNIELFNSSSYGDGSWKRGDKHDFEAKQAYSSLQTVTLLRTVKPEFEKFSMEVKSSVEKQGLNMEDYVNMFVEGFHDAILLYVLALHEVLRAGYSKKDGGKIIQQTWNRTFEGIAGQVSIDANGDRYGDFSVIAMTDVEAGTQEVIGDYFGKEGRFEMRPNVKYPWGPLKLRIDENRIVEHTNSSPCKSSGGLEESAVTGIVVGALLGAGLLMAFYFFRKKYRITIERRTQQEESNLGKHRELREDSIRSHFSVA

NPRA = target: T2, NPRA (Homo sapiens, UniProt P16066); details: comparison between natriuretic peptides, Vesely 2008; cited from earlier work
T2 sequence (P16066 33-1061): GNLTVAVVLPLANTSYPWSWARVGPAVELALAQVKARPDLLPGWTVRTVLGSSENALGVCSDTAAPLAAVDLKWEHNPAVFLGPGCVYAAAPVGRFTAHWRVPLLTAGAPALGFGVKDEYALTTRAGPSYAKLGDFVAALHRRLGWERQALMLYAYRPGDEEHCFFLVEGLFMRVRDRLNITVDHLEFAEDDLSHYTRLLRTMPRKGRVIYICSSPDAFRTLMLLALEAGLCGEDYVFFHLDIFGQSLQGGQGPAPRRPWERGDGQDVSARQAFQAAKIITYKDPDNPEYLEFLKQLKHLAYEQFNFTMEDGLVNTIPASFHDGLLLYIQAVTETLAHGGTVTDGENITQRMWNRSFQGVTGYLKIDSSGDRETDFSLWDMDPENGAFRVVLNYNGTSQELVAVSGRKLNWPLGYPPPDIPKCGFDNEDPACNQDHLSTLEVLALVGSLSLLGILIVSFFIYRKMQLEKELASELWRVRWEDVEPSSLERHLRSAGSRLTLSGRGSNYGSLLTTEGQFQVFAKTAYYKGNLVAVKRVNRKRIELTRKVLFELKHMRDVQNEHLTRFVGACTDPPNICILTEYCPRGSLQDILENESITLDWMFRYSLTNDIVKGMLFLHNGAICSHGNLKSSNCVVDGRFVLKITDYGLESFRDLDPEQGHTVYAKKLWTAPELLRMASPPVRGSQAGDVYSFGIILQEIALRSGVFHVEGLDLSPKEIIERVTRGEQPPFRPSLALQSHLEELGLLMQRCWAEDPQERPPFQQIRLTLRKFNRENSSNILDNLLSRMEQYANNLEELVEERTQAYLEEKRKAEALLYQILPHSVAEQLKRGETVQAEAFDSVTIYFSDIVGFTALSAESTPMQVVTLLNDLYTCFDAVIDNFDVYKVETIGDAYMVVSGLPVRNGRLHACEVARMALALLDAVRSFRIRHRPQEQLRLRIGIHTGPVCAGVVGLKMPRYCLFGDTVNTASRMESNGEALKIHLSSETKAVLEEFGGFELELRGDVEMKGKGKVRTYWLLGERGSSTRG

ANP: atrial natriuretic peptide; Table III sequence SLRRSSCFGGRMDRIGAQSGLGCNSFRY [reference compound]
Optical Densities in 96_Well Plate, Average ([1]; peptide 0.01 μM): 0.908 | Optical Densities in 96_Well Plate, single well ([1]; peptide 0.01 μM): 0.981 and 0.815 and 0.822 and 0.965 and 0.955 | Optical Densities in 96_Well Plate, Average ([1]; peptide 0.03 μM): 0.935 | Optical Densities in 96_Well Plate, single well ([1]; peptide 0.03 μM): 0.948 and 0.882 and 0.911 and 0.951 and 0.982 | Optical Densities in 96_Well Plate, Average ([1]; peptide 0.1 μM): 0.838 | Optical Densities in 96_Well Plate, single well ([1]; peptide 0.1 μM): 0.884 and 0.889 and 0.907 and 0.862 and 0.650 | Optical Densities in 96_Well Plate, Average ([1]; peptide 0.3 μM): 0.974 | Optical Densities in 96_Well Plate, single well ([1]; peptide 0.3 μM): 1.001 and 0.889 and 0.837 and 0.934 and 1.209 | Optical Densities in 96_Well Plate, Average ([1]; peptide 1.0 μM): 0.914 | Optical Densities in 96_Well Plate, single well ([1]; peptide 1.0 μM): 1.018 and 0.819 and 0.954 and 0.829 and 0.951 | Activity of peptides sharing the conserved motif (cancer cells [2]): have activity | Effect on VEGF-induced decrease in trans-epithelial electrical resistance (TEER) [3]: attenuated the effect of VEGF; also recorded: This decrease is attenuated by ANP | Relative potency of NPs (cancer cells [4]): greater potency observed for ANP than CNP | Relative binding affinity at NPRC (NPRC): higher binding affinities at NPRA and NPRC | Relative binding affinity at NPRA (NPRA): higher binding affinities at NPRA and NPRC
